Measurements as given in US20070093460A1, “Methods of using selective 11beta-HSD inhibitors to treat gluocorticoid associated states” (priority 2005, published 2007).
“Also recorded” adds a separate entry of the source.

Experiments:
Format in all cases: cell-based
[1] = molecular target: T1, 11β-HSD1-reductase activity (Rattus norvegicus, UniProt P16232); assay: Metabolism of 3H-11-dehydrocorticosterone back to corticosterone by aortic rings; settings: 24 hours, compared with nonsense oligomers
T1 construct: from tissue; host or cells: rat aortic rings (intact tissue, 24 h incubation)
T1 sequence (P16232 whole entry): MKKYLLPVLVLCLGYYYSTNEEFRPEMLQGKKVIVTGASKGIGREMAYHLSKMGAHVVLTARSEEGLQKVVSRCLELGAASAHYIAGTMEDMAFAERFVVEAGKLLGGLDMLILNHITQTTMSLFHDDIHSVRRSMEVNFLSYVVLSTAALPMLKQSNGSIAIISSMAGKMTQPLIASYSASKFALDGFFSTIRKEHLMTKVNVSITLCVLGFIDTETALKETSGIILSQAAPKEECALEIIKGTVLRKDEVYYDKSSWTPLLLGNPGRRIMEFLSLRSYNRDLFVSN
Experimental: (§1) The effects of 11β-HSD1 and 11β-HSD2 antisense on the inter-conversion of ^3H-corticosterone and ^3H-11-dehydro-corticosterone by aortic rings was also determined. Rings (2-3 mm) obtained in a similar manner as those in the contraction studies, were incubated in 1 ml DMEM/F12 media containing 1% FBS at 37° C. under 95% O2-5% CO2 in 24-well culture plates. Rings were incubated for 24 hours with:
(ii) ^3H-11β-dehydro-corticosterone (10 nmol/L)±11β-HSD1 antisense (3 μmol/L); this experiment was performed in duplicate (n=10 aortic rings per well). Control groups were incubated with the appropriate nonsense oligomer. ^3H-corticosterone in the incubation medium after 24 hrs was then measured. In this experiment, aortic rings were also analyzed for ^3H-corticosterone content. Rings from duplicate incubations (total n=20) were blotted dry, pooled and homogenized in 50% methanol using a Polytron. The homogenates were then centrifuged, extracted as below using Sep-Paks and injected onto a HPLC system for analysis.
Incubation media was collected, ran through a Sep-Pak and eluted with 3 mls of methanol, the eluate was then dried under nitrogen and reconstituted in 500:1 methanol. The aortic rings were dried and weighed. […] Steroids were observed by monitoring radioactivity on-line with a Packard Radiomatic Flo-One/Beta Series A-500 counter connected to a Dell Optiflex 425 S/L computer. […]

[2] = system: rat aortic rings; assay: Conversion of 3H-corticosterone to 11-dehydrocorticosterone by aortic rings; settings: 3H-corticosterone 10 nM, antisense 3 μM, 24 hrs, compared with nonsense oligomers
Experimental: as §1
(i) ^3H-corticosterone (10 nmol/L)±11β-HSD2 or 11β-HSD1 antisense (3 μmol/L); control groups received nonsense oligomers. The amount of ^3H-11-dehydro-corticqsterone in the incubation medium after 24 hrs was then measured. The effects of 11β-HSD1 antisense/nonsense were measured in quadruplicate (n=6 aortic rings per well) and the effects of 11β-HSD2 antisense/nonsense in duplicate (n=8 aortic rings per well),
Incubation media was collected, ran through a Sep-Pak and eluted with 3 mls of methanol, the eluate was then dried under nitrogen and reconstituted in 500:1 methanol. The aortic rings were dried and weighed. The steroids present in the eluate were separated by high-pressure liquid chromatography with a Dupont Zorbax C8 column eluted at 44° C. at a flow rate of 1 mL/min using 55% methanol for 10 minutes. Steroids were observed by monitoring radioactivity on-line with a Packard Radiomatic Flo-One/Beta Series A-500 counter connected to a Dell Optiflex 425 S/L computer. […]

[3] = system: cultured rat vascular endothelial and smooth muscle cells; assay: RT-PCR analysis of 11β-HSD isoform expression in cultured cells; settings: similar protocol
Excerpt: Since 11β-HSD2 appears to exist only in endothelial cells, this observation supports a role for the action of glucocorticoids in affecting endothelial cell function. […] Further experiments to determine whether antisense oligomers down-regulate mRNA and protein expression of their respective 11β-HSD isoform under conditions in which they enhance contractile responses in aortic rings will be done.

[4] = system: rat aortic rings; assay: Contractile response of rat aortic rings to phenylephrine; settings: 24 h; for effect on the ability of 11-dehydro-corticosterone to amplify the contractile response to phenylephrine: 11-dehydro-corticosterone 100 nmol/L, antisense 3 μmol/L vs nonsense; for contractile response to phenylephrine of rings incubated with corticosterone and antisense: corticosterone 10 nmol/L + antisense 3 μmol/L, compared with nonsense oligomers
Experimental: Male Sprague-Dawley (150-200 g) rats were anesthetized with pentobarbital (50 mg/kg IP), and a median sternotomy was performed followed by the rapid removal of the thoracic aorta. The adventitia was removed, but the endothelium was left intact. The aorta was cut into 2-3 mm rings and individual rings were placed into a single well of a twenty four well culture plate and incubated at 37° C. under 95% 02-5% CO2. Each well contained 1 mL of DMEM/F12 containing 1% fetal bovine serum, streptomycin (100 μg/ml), penicillin (100 units/ml) and amphotericin (0.25 μg/ml). Aortic rings were incubated for 24 hours prior to contractility measurements with the following combinations of steroids, and antisense/nonsense oligonucleotides (3 μmol/L):
Antisense phosphorothioate oligonucleotides, targeted to block either 11β-HSD2 or 11β-HSD1 gene expression, were obtained from Research Genetics, Huntsville Ala. Antisense oligomers complementary to 20 bp sequences spanning the ribosome binding/translation start site were used. Oligomer sequences were: 5′-CATAACTGCCGTCCAACAGC-3′ (SEQ ID NO. 1) for 11β-HSD1 Antisense and 5′-AGGCCAGCGCTCCATGACTT-3′ (SEQ ID NO 2) for 11β-HSD2 antisense. In control experiments the corresponding sense sequence was used as the nonsense oligomer. Antisense and nonsense oligomers were added directly to each well at 20 μg/10:1 sterile H2O per well for a final concentration of 3 μmol/L.
For contraction measurements, aortic rings were suspended by tungsten wires with 1 g of tension and placed in a vessel bath containing serum free DMEM/F12 media at 37° C. aerated with 95% O2-5% CO2, at pH 7.4. Vessels were equilibrated for 20 minutes and then tested with phenylephrine (1 nmol/L-10 μmol/L). Although phenylephrine is structurally not a catecholamine, it is considered to be a functional catecholamine as it activates both a and P adrenoceptors. Due to its favorable stability characteristics, it is widely used as a catecholamine substitute in experiments of this nature. The intensity of contraction was assessed by use of a Narishige micromanipulator and model FT03 force transducer (Grass Instrument Co. West Warwick, R.I.). Measurements were recorded on computer using the Labview 4.1 Virtual Instrument System (National Instruments, Austin, Tex.).

[5] = listed as 11β-HSD1 antisense oligomers

| Substance | production of 3H-corticosterone from 3H-11-dehydrocorticosterone [1] | reduction in the conversion of corticosterone to 11-dehydrocorticosterone [2] [%] | expression of the respective 11β-HSD enzyme isoform [3] | effect on the ability of 11-dehydro-corticosterone to amplify the contractile response to phenylephrine [4] | effect on the ability of 11-dehydro-corticosterone to amplify the contractile response to phenylephrine ([4]; listed as 11β-HSD1 antisense oligomer) | effect on the ability of 11-dehydro-corticosterone to amplify the contractile response to phenylephrine [4, 5] | contractile response to phenylephrine of rings incubated with corticosterone and antisense [4] | contractile response to phenylephrine of rings incubated with corticosterone and antisense [4, 5] |
| --- | --- | --- | --- | --- | --- | --- | --- | --- |
| 5′-CATAACTGCCGTCCAACAGC-3′ (antisense CATAACTGCCGTCCAACAGC; all phosphorothioate, sugars by position and methylation of C not given here) [11β-HSD1 antisense] | significantly reduce; also recorded: markedly reduced; also recorded: marked decrease | 21 | down-regulate the expression | significantly attenuated | attenuates | attenuated | significantly increased | enhanced the ability of corticosterone to amplify the contractile response |
| 5′-AGGCCAGCGCTCCATGACTT-3′ (antisense AGGCCAGCGCTCCATGACTT; all phosphorothioate, sugars by position and methylation of C not given here) [11β-HSD2 antisense] |  | 24 | down-regulate the expression |  |  |  | statistically significant increase; also recorded: significantly (P<0.05) increased |  |
